# Conditions: acidic group
row,Compound,pKa
1,OC(c1ccncc1)(c1ccncc1)c1ccccn1,12.4
2,Cc1ccccc1OC(C)C(=O)O (configuration not stated),3.37
3,O=C(O)Cn1cccc1,3.3
4,O=C(O)c1ccccc1O[C@H]1O[C@@H](CO)[C@H](O)[C@@H](O)[C@@H]1O,3.6
5,O=C(O)C[NH+](CC(=O)O)Cc1cc(Cl)cc(C[NH+](CC(=O)O)CC(=O)O)c1O,2
6,[O-]c1cccc(O)c1,11.3
7,O=C(NO)c1cccc([N+](=O)[O-])c1,8.07
8,N#CC(C#N)=NNc1ccccc1,6.55
9,Cc1ccc(C(=O)O)cc1[N+](=O)[O-],3.62
10,Sc1[nH+]ccc2ccccc12,-1.9
11,CCNc1ncnc2[nH]ncc12,10.9
12,CCOC(=O)C1CCCC1=O (configuration not stated),10.7
13,O=[N+]([O-])c1ccc(C(=S)Nc2ccccc2)cc1,9.81
14,O=C(O)c1ccc2ccccc2[nH+]1,1.79
15,C[N+](C)(C)[CH2][Sn]([CH3])([CH3])[CH3],10.6
16,O=C([O-])CCC(=O)C=C=Cc1ccccc1,13.3
17,O=C(O)[C@@]1(Cl)[C@@H]2CCC[C@@H]21,3.03
18,Oc1ccc2cccc(I)c2c1,8.98
19,Nc1ccc(S(=O)(=O)Nc2nccs2)cc1/N=N/c1ccccc1,5.85
20,O/N=C/c1ccccc1O,9.21
21,Oc1ccc2cnncc2c1,7.95

row,Compound,pKa
1,Cc1csc(-c2ccc(NS(=O)(=O)c3ccc(N)cc3)cc2)n1,8.5
2,O=C(c1ccccc1)c1cccc([N+](=O)[O-])c1C(=O)O,2.39
3,CC[NH2+]CC[SeH],5.04
4,NC(=O)c1ccccc1C(=O)O,3.75
5,CO[n+]1ccccc1N,12.4
6,CC(=O)C(C)C(C)(C)C(=O)O (configuration not stated),5.79
7,[NH3+]c1cccc(C(=O)O)c1,3.09
8,NC(=O)Nc1ccc([N+](=O)[O-])cc1,14
9,[S-]c1ccncc1,8.83
10,CCC[NH2+]C(C)C(=O)O (configuration not stated),2.21
11,COC(=O)c1cccc(NC=S)c1,10.8
12,CCNC(=S)OC(C)C,11.5
13,CNC(=S)OC(C)C,11.6
14,NS(=O)(=O)c1ccc(C(=O)O)cc1,3.53
15,O=C(O)/C=C/c1ccccc1O,4.56
16,C[NH+](C)CC[SeH],4.74
17,O=C(C[N+](=O)[O-])c1ccccc1,5.19
18,CC(S)C(=O)O (configuration not stated),3.35
19,c1nnn[nH]1,4.84
20,OC(O)c1cccnc1,13.1
21,[NH3+]CC(=O)O,2.36

row,Compound,pKa
1,Oc1cccc2c1CCC2,10.2
2,CCNc1nnn[nH]1,6.12
3,CC(=O)N[C@H]1CONC1=O,5.8
4,O=[N+]([O-])c1ccc(O)c(C[NH+]2CCOCCOCCOCCOCC2)c1,5.79
5,O=S(=O)(Nc1ncccn1)c1ccccc1,5.91
6,CN(C)c1ccc(NC(=O)/C=N/O)cc1,9.26
7,COc1cc(OC)c2c(c1Cl)O[C@]1(C(=O)CC(=O)C[C@@H]1C)C2=O,4.49
8,Cc1cc(Cl)ccc1O,9.6
9,c1ccc(CSc2cnn[nH]2)cc1,8.2
10,Cc1ccc([P+](c2ccc(C)cc2)(c2ccc(C)cc2)C2c3ccccc3-c3ccccc32)cc1,9.64
11,O=C(O)c1cccnn1,3
12,Cc1nnc(S)n1N,7.97
13,N#CS,0.85
14,CCCCOC(=O)c1ccc(O)cc1,8.34
15,CC(C)CNC(O)=S,0.38
16,C[NH2+]CC(=O)O,2.24
17,CN(C)c1cccc(/C(=N\O)C(F)(F)F)c1,9.3
18,Oc1ccc2cc(Br)ccc2c1,9.2
19,FC(F)(F)c1cccc(NC=S)c1,10.8
20,N#CCc1ccc(C#N)cc1[N+](=O)[O-],11.4
21,O=C([O-])CNS(=O)(=O)c1ccccc1,11.4

row,Compound,pKa
1,OC(CBr)(Oc1ccccc1)c1ccccc1 (configuration not stated),11.2
2,Cc1ccc(O)cc1C(=O)O,3.92
3,O=C(O)c1c2ccccc2[nH+]c2ccccc12,3
4,CCOC(=S)NC(=O)c1ccccc1,7.46
5,CCC1C(=O)c2ccccc2C1=O,6.5
6,O=[N+]([O-])c1[nH]cnc1Cl,5.9
7,CC(=S)Nc1ccc([N+](=O)[O-])cc1,9.89
8,COc1ccc(C(=O)S)cc1,2.79
9,CCCCCCCCCC[NH2+]CCC(=O)O,3.57
10,COc1ccc2c3c([nH]c2c1)C(C)NCC3 (configuration not stated),15.6
11,CC(C)CC(=O)CC(=O)C(F)(F)F,6.52
12,[NH3+]C(CC(=O)[O-])C(=O)NC(CC(=O)O)C(=O)[O-] (configuration not stated),4.7
13,O=C(O)[C@H]1CC[C@@H](O)CC1,4.84
14,CC(C)(C)c1cc(/C=C/C(=O)[O-])cc(C(C)(C)C)c1O,11.1
15,O=C(O)[C@@H](P)CC[C@H](P)C(=O)O,3.62
16,CCc1c(-c2ccccc2)n[nH]c1O,7.8
17,C[Si](C)(CCCCl)CCCC(=O)O,4.98
18,Oc1c(Cl)cc(Cl)c2cccnc12,7.51

# Same assay, conditions: basic group
row,Compound,pKa
1,C[Si](C)(C)OC1CN(Cc2ccc(Cl)cc2)C1,7.72
2,Cc1ccc(N=C2C=CC(=N)C=C2)c(N)c1,4.2
3,O=[N+]([O-])c1ccc2[nH]c(-c3ccco3)nc2c1,2.64
4,C1CNCCNCC[NH2+]C1,6.75
5,Cc1cncc(C)[nH+]1,-4.48
6,CN(C)c1ncnc2c1cnn2C,4.06
